From ChEMBL document CHEMBL1201862, “PubChem BioAssay data set” (2004)
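Results reflect a 48-hour exposure of cells in 96-well plates to compound at five concentrations. Here, GI50 denotes the concentration required for 50% inhibition of growth.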 The source made the active and inactive calls. Cut-off read from the data, not from the text of the source: active = GI50 up to about 1.1 µM and inactive = higher.

Assays:
Experiment in all cases: DTP human tumour cell line panel, 48 h
DLD-1 = tested on: DLD-1
DMS-273 = tested on: DMS-273
HOP-18 = tested on: HOP-18
LXFL 529 = tested on: LXFL 529
M19-MEL = tested on: M19-MEL
SNB-78 = tested on: SNB-78
XF498 = tested on: XF498
DMS-114 = tested on: DMS-114
RXF 631 = tested on: RXF 631

SMILES	GI50 (DLD-1)	GI50 (DMS-273)	GI50 (HOP-18)	GI50 (LXFL 529)	GI50 (M19-MEL)	GI50 (SNB-78)	GI50 (XF498)	GI50 (DMS-114)	GI50 (RXF 631)
N#C/C(=C\c1ccc(O)c(O)c1)C(=O)NC1CCC(CC2CCC(NC(=O)/C(C#N)=C/c3ccc(O)c(O)c3)CC2)CC1 (stereo not drawn)	0.415 µM (active)	0.222 µM (active)	2.38 µM (inactive)	0.433 µM (active)	0.443 µM (active)	1.59 µM (inactive)	2.07 µM (inactive)		
O=C(CCc1cc(-c2ccccc2)nc(S)n1)N(Cc1ccccc1)Cc1ccccc1	> 100 µM (inactive)	> 100 µM (inactive)	> 100 µM (inactive)	> 100 µM (inactive)	> 100 µM (inactive)	> 100 µM (inactive)	> 100 µM (inactive)	> 100 µM (inactive)	
O/N=C\C(=N/O)Nc1ccc(Cc2ccc(NC(/C=N\O)=N/O)cc2)cc1	23.9 µM (inactive)	43.9 µM (inactive)	37.9 µM (inactive)	39.4 µM (inactive)	47 µM (inactive)	> 100 µM (inactive)	71.3 µM (inactive)	69.3 µM (inactive)	
COC(=O)/C(=N/Nc1cccc(Cl)c1)C(C(=O)C(=O)Nc1cccc(Cl)c1C)c1nc2ccccc2nc1C (stereo not drawn)	34.5 µM (inactive)				54 µM (inactive)			45 µM (inactive)	
COC1CC(OS(=O)(=O)c2ccc([N+](=O)[O-])cc2)C(OC(=O)c2ccccc2)C(C)O1 (stereo not drawn)	> 100 µM (inactive)	> 100 µM (inactive)	> 100 µM (inactive)	> 100 µM (inactive)	> 100 µM (inactive)	> 100 µM (inactive)	31.8 µM (inactive)		58.5 µM (inactive)
NCCn1ccc(NC(c2ccccc2)(c2ccccc2)c2ccccc2)nc1=O	63.1 µM (inactive)		> 100 µM (inactive)	16.7 µM (inactive)	20.9 µM (inactive)	20.6 µM (inactive)	13.4 µM (inactive)	18.6 µM (inactive)	
CCCOP1(=O)C=C(O)C(Cl)=C(C)C1 (stereo not drawn)	> 100 µM (inactive)	> 100 µM (inactive)		> 100 µM (inactive)	> 100 µM (inactive)	> 100 µM (inactive)	> 100 µM (inactive)		
C=CC(=O)C#CC#CC/C=C\CCCCCCC	8.79 µM (inactive)	> 20.6 µM (inactive)		7.74 µM (inactive)	> 20.6 µM (inactive)	10.3 µM (inactive)		10.3 µM (inactive)	
CCOC(=O)CC1COc2ccc3c(c21)OCO3 (stereo not drawn)	> 100 µM (inactive)	> 100 µM (inactive)	> 100 µM (inactive)	> 100 µM (inactive)	> 100 µM (inactive)	> 100 µM (inactive)	> 100 µM (inactive)	> 100 µM (inactive)	
COc1ccc(/C=N/NC(=O)CSc2nc(-c3ccccc3)c(-c3ccccc3)[nH]2)cc1OC	42.6 µM (inactive)	20.4 µM (inactive)		22.1 µM (inactive)	18.4 µM (inactive)			46.1 µM (inactive)	
O=C1CCC(=O)C(C(=O)CCC(=O)Nc2cccc(Cl)c2)C1 (stereo not drawn)	> 100 µM (inactive)		> 100 µM (inactive)	> 100 µM (inactive)	> 100 µM (inactive)		> 100 µM (inactive)		
COC(=O)CSc1nnc(-c2ccccc2)[nH]1	> 100 µM (inactive)	> 100 µM (inactive)	> 100 µM (inactive)	> 100 µM (inactive)	> 100 µM (inactive)	> 100 µM (inactive)		> 100 µM (inactive)	
COc1ccc(C2S/C(=C\c3ccccc3O)C(=O)N2NC(=O)Cc2ccccc2)cc1 (stereo not drawn)	> 100 µM (inactive)	> 100 µM (inactive)	> 100 µM (inactive)	93.1 µM (inactive)	> 100 µM (inactive)			74.5 µM (inactive)	
COC(=O)C(CC(=O)Nc1ccc(Cl)c(Cl)c1)C(=O)C(=O)NC1C2CC3CC(C2)CC1C3 (stereo not drawn)		> 100 µM (inactive)	78.3 µM (inactive)	> 100 µM (inactive)	> 100 µM (inactive)	> 100 µM (inactive)		> 100 µM (inactive)	
COc1ccc(C2NC3=C(CCCC3)N2)cc1	88.1 µM (inactive)	54.2 µM (inactive)		59.8 µM (inactive)	41.6 µM (inactive)	> 100 µM (inactive)	59 µM (inactive)	75.5 µM (inactive)	
Cc1c(/C=N/N=C/c2[nH]c(C(=O)OC(C)(C)C)c(C)c2C)[nH]c(C(=O)OC(C)(C)C)c1C	> 100 µM (inactive)	> 100 µM (inactive)	> 100 µM (inactive)	> 100 µM (inactive)	> 100 µM (inactive)	> 100 µM (inactive)		> 100 µM (inactive)	
CCCCCCCCCCC(O)CCCCCCC(=O)O (stereo not drawn)	19.3 µM (inactive)	22.4 µM (inactive)	27.9 µM (inactive)	23.4 µM (inactive)	35.6 µM (inactive)	> 100 µM (inactive)	29.8 µM (inactive)	23.1 µM (inactive)	19.1 µM (inactive)
O=C(OCc1ccccc1)N1N=NC2C3CC(OCc4ccccc4)(OCc4ccccc4)C(O3)C21 (stereo not drawn)	16.9 µM (inactive)	15.5 µM (inactive)	20.6 µM (inactive)	18.8 µM (inactive)	24.4 µM (inactive)	43.7 µM (inactive)	22.7 µM (inactive)	8.99 µM (inactive)	46 µM (inactive)
Cc1cc(NS(=O)(=O)c2ccc(Nc3c4ccccc4nc4c(C(=O)N5CCN(CCOS(C)(=O)=O)CC5)cccc34)cc2)no1	> 100 µM (inactive)	> 100 µM (inactive)			> 100 µM (inactive)	> 100 µM (inactive)	> 100 µM (inactive)	> 100 µM (inactive)	
CCN(CC)c1ccc(/C=C2/C[N+](C)(C)C/C(=C/c3ccc(N(CC)CC)cc3)C2=O)cc1	9.59 µM (inactive)		6.61 µM (inactive)	1.1 µM (active)	1.45 µM (inactive)	2.82 µM (inactive)	2.48 µM (inactive)	1.41 µM (inactive)	> 30.3 µM (inactive)
COC(=O)/C(=C/c1ccc(OC)cc1)C(C(=O)O)=C(C)C	> 100 µM (inactive)	> 100 µM (inactive)	> 100 µM (inactive)	> 100 µM (inactive)	> 100 µM (inactive)	> 100 µM (inactive)		> 100 µM (inactive)	
CC1OC(OCC2OC(Oc3c(-c4ccc(O)cc4)oc4cc(O)cc(O)c4c3=O)C(OC3OCC(O)(CO)C3O)C(O)C2O)C(O)C(O)C1O (stereo not drawn)	36.8 µM (inactive)	49.2 µM (inactive)	> 100 µM (inactive)	> 100 µM (inactive)	21.7 µM (inactive)	> 100 µM (inactive)		32 µM (inactive)	> 100 µM (inactive)
CCOC(=O)c1oc2c(OC)ccc3c2c1CCC3	> 100 µM (inactive)	> 100 µM (inactive)		> 100 µM (inactive)	> 100 µM (inactive)	> 100 µM (inactive)	> 100 µM (inactive)	> 100 µM (inactive)	> 100 µM (inactive)
CCOC(=O)C1S/C(=N\c2ccccc2)N=C1C (stereo not drawn)	49.9 µM (inactive)		> 100 µM (inactive)	65.8 µM (inactive)	> 100 µM (inactive)	83 µM (inactive)	> 100 µM (inactive)	59 µM (inactive)	> 100 µM (inactive)
CC[C@]12C=CCN3CCC4(c5cc([C@@]6(C(=O)OC)CC7CN(CCc8c6[nH]c6ccccc86)CC6CCCCC67)c(OC)cc5N(C)C4[C@](O)(C(=O)OC)C1OC(C)=O)[C@@H]32 (stereo partly drawn)	0.0269 µM (active)	< 0.01 µM (active)		< 0.01 µM (active)	< 0.01 µM (active)	< 0.01 µM (active)	0.0469 µM (active)	< 0.01 µM (active)	
O=Cc1ccc(-c2cccs2)s1	> 63.1 µM (inactive)	> 100 µM (inactive)	> 62.8 µM (inactive)	1.76 µM (inactive)	> 100 µM (inactive)	> 100 µM (inactive)	4.33 µM (inactive)	> 90.8 µM (inactive)	5.08 µM (inactive)
NC(C(=O)O)c1ccc(C(=O)O)cc1 (stereo not drawn)	> 100 µM (inactive)			> 100 µM (inactive)	> 100 µM (inactive)	> 100 µM (inactive)	> 100 µM (inactive)	> 100 µM (inactive)	> 100 µM (inactive)
C/C=C/C1=C(Cl)C(=O)[C@@H](Cl)[C@@]1(O)C(=O)OC [(+)-CRYPTOSPORIPSIN]	2.28 µM (inactive)	3.54 µM (inactive)	4.09 µM (inactive)	2.64 µM (inactive)	2.55 µM (inactive)	5.18 µM (inactive)	2.82 µM (inactive)		10.5 µM (inactive)
